# pEC50: −log10 of the molar value.
# What was measured:
# [1] = biological target: T1, glucokinase (GK) enzyme (Homo sapiens, UniProt P35557); assay: In-vitro glucokinase (GK) activation assay (coupled with glucose-6-phosphate dehydrogenase, absorbance at 340); type: biochemical; conditions: glucose 2.5 mM; for activity at 0.1 µM / activity at 1 µM / activity at 5 µM / activity at 10 µM: read-out: % of GK activity wrt DMSO; for pEC50: GK enzyme 0.2 units, ATP 1 mM
# T1 sequence (P35557 1-465): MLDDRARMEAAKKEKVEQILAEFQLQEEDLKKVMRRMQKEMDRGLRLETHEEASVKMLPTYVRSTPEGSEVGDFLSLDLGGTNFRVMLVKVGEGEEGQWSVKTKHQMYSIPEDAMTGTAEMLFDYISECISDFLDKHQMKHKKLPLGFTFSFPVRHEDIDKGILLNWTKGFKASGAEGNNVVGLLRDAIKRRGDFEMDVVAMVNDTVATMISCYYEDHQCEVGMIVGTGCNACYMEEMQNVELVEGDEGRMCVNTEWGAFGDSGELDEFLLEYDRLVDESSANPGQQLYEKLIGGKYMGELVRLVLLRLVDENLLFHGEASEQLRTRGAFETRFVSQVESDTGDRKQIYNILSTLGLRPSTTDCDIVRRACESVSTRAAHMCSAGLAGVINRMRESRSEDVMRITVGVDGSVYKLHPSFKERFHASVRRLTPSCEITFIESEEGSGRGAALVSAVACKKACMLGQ
# Description: The compound of the invention was incubated with glucokinase (GK) enzyme (0.2 units) for 10 minutes in assay buffer at 26° C. After incubation, addition of glucose-6-phosphate dehydrogenase (2.5 units), ATP (1 mM) and glucose (2.5 mM). Absorbance is measured at 340 nm for 15 minutes with 10 second interval using UV transparent plate in kinetic mode on Spectramax-190 at 30° C.
# [2] = test system: Male C57 mice; assay: Oral glucose tolerance test (OGTT), overnight fasted; type: in vivo; conditions: for % change in glucose levels Vs Control: treated at −30 min, oral glucose load 3 g/kg at 0 min; for % change in glucose levels Vs Control, Mean: Mean over the time points, oral glucose load 3 g/kg
# Description: Effect of Glucokinase Activators (GKAs) of the Present Invention on Glucose Reduction Determined by Oral Glucose Tolerence Test (OGTT):
# Male C57 mice, aged 8-10 weeks were fasted overnight and subjected to the treatment of selected GK activator at time denoted as −30 min. At time 0 min, mice were given oral glucose load of 3 g/kg, and the glucose excursion was observed upto 120 min. The percentage change against the change in glucose levels of control are mentioned in the table 2.
Compound,activity at 0.1 µM ([1]; 0.1 uM compound) [%],activity at 1 µM ([1]; 1 uM compound) [%],activity at 5 µM ([1]; 5 uM compound) [%],activity at 10 µM ([1]; 10 uM compound) [%],other results
"Cc1nnc(-c2ccc(Oc3cc(OC4CCN(C)C4=O)cc(C(=O)Nc4nccs4)c3)cc2)o1 (stereo not shown) [Example 1, 3-(4-(5-Methyl-1,3,4-oxadiazol-2-yl)phenoxy)-5-(1-methyl-2-oxopyrrolidin-3-yloxy)-N-(thiazol-2-yl)benzamide]",276,309,316,309,"pEC50 [1]: 7.68; % change in glucose levels Vs Control ([2]; 0 min Vs −30 min): −32.7 ± 2.8%; % change in glucose levels Vs Control ([2]; 30 min Vs −30 min): 3.3 ± 9.7%; % change in glucose levels Vs Control ([2]; 60 min Vs −30 min): −39.5 ± 7.0%; % change in glucose levels Vs Control ([2]; 120 min Vs −30 min): −24.3 ± 9.0%; % change in glucose levels Vs Control, Mean [2]: −23.3%"
"Cc1nnc(-c2ccc(Oc3cc(OC4CCN(C)C4=O)cc(C(=O)Nc4ncc(C)s4)c3)cc2)o1 (stereo not shown) [Example 2, 3-(4-(5-Methyl-1,3,4-oxadiazol-2-yl)phenoxy)-5-(1-methyl-2-oxopyrrolidin-3-yloxy)-N-(5-methylthiazol-2-yl)benzamide]",205,227,233,236,"pEC50 [1]: 7.40; % change in glucose levels Vs Control ([2]; 0 min Vs −30 min): −34.5 ± 3.2%; % change in glucose levels Vs Control ([2]; 30 min Vs −30 min): −13.5 ± 8.8%; % change in glucose levels Vs Control ([2]; 60 min Vs −30 min): −49.6 ± 11.2%; % change in glucose levels Vs Control ([2]; 120 min Vs −30 min): −53.2 ± 3.1%; % change in glucose levels Vs Control, Mean [2]: −37.7%"
"Cc1cc(NC(=O)c2cc(Oc3ccc(-c4nnc(C)o4)cc3)cc(OC3CCN(C)C3=O)c2)n[nH]1 (stereo not shown) [Example 24, 3-(4-(5-Methyl-1,3,4-oxadiazol-2-yl)phenoxy)-N-(5-methyl-1H-pyrazol-3-yl)-5-((1-methyl-2-oxopyrrolidin-3-yl)oxy)benzamide]",146,147,173,189,–
"CCOC(=O)c1cnc(NC(=O)c2cc(Oc3ccc(-c4nnc(C)o4)cc3)cc(OC3CCN(C)C3=O)c2)s1 (stereo not shown) [Example 25, Ethyl 2-(3-(4-(5-methyl-1,3,4-oxadiazol-2-yl)phenoxy)-5-((1-methyl-2-oxopyrrolidin-3-yl)oxy)benzamido)thiazole-5-carboxylate]",125,149,203,208,–
"CC(C)Cc1nnc(-c2ccc(Oc3cc(OC4CCN(C)C4=O)cc(C(=O)Nc4nccs4)c3)cc2)o1 (stereo not shown) [Example 28, 3-(4-(5-Isobutyl-1,3,4-oxadiazol-2-yl)phenoxy)-5-((1-methyl-2-oxopyrrolidin-3-yl)oxy)-N-(thiazol-2-yl)benzamide]",131,248,336,338,–
"Cc1csc(NC(=O)c2cc(Oc3ccc(-c4nnc(CC(C)C)o4)cc3)cc(OC3CCN(C)C3=O)c2)n1 (stereo not shown) [Example 30, 3-(4-(5-Isobutyl-1,3,4-oxadiazol-2-yl)phenoxy)-5-((1-methyl-2-oxopyrrolidin-3-yl)oxy)-N-(4-methylthiazol-2-yl)benzamide]",126,249,370,386,–
"Cc1csc(NC(=O)c2cc(Oc3ccc(-c4nnc(-c5ccccc5)o4)cc3)cc(OC3CCN(C)C3=O)c2)n1 (stereo not shown) [Example 31, 3-((1-Methyl-2-oxopyrrolidin-3-yl)oxy)-N-(4-methylthiazol-2-yl)-5-(4-(5-phenyl-1,3,4-oxadiazol-2-yl)phenoxy)benzamide]",146,295,356,343,–
"CN1CCC(Oc2cc(Oc3ccc(-c4nnc(C5CC5)o4)cc3)cc(C(=O)Nc3nccs3)c2)C1=O (stereo not shown) [Example 32, 3-(4-(5-Cyclopropyl-1,3,4-oxadiazol-2-yl)phenoxy)-5-((1-methyl-2-oxopyrrolidin-3-yl)oxy)-N-(thiazol-2-yl)benzamide]",187,304,366,382,–
"CCN1CCC(Oc2cc(Oc3ccc(-c4nnc(C)o4)cc3)cc(C(=O)Nc3nccs3)c2)C1=O (stereo not shown) [Example 35, 3((1-Ethyl-2-oxopyrrolidin-3-yl)oxy)-5-(4-(5-methyl-1,3,4-oxadiazol-2-yl)phenoxy)-N-(thiazol-2-yl)benzamide]",181,322,382,366,–
"Cc1nnc(-c2ccc(Oc3cc(OC4CCN(C)C4=O)cc(C(=O)Nc4ncccc4O)c3)cc2)o1 (stereo not shown) [Example 39, N-(3-hydroxypyridin-2-yl)-3-(4-(5-methyl-1,3,4-oxadiazol-2-yl)phenoxy)-5-((1-methyl-2-oxopyrrolidin-3-yl)oxy)benzamide]",151,179,215,262,–
"(S)-3-(4-(5-methyl-1,3,4-oxadiazol-2-yl)phenoxy)-5-((2-oxopyrrolidin-3-yl)oxy)-N-(thiazol-2-yl)benzamide [Example 70]",–,–,–,–,% of GK activity wrt DMSO ([1]; 0.1 uM compound): 238.3%; % of GK activity wrt DMSO ([1]; 1 uM compound): 315.1%; % of GK activity wrt DMSO ([1]; 5 uM compound): 318.4%; % of GK activity wrt DMSO ([1]; 10 uM compound): 325.6%

# The next lines start with results.
activity at 0.1 µM ([1]; 0.1 uM compound) [%],activity at 1 µM ([1]; 1 uM compound) [%],activity at 5 µM ([1]; 5 uM compound) [%],activity at 10 µM ([1]; 10 uM compound) [%],Compound,other results
168,250,287,282,"Cc1nc(-c2ccc(Oc3cc(OC4CCN(C)C4=O)cc(C(=O)Nc4ncc(C)s4)c3)cc2)no1 (stereo not shown) [Example 23, 3-(4-(5-Methyl-1,2,4-oxadiazol-3-yl)phenoxy)-5-((1-methyl-2-oxopyrrolidin-3-yl)oxy)-N-(5-methylthiazol-2-yl)benzamide]",–
109,205,339,357,"CCOC(=O)c1csc(NC(=O)c2cc(Oc3ccc(-c4nnc(C)o4)cc3)cc(OC3CCN(C)C3=O)c2)n1 (stereo not shown) [Example 26, Ethyl 2-(3-(4-(5-methyl-1,3,4-oxadiazol-2-yl)phenoxy)-5-((1-methyl-2-oxopyrrolidin-3-yl)oxy)benzamido)thiazole-4-carboxylate]",–
177,262,355,365,"CCc1nnc(-c2ccc(Oc3cc(OC4CCN(C)C4=O)cc(C(=O)Nc4nc(C)cs4)c3)cc2)o1 (stereo not shown) [Example 27, 3-(4-(5-Ethyl-1,3,4-oxadiazol-2-yl)phenoxy)-5-((1-methyl-2-oxopyrrolidin-3-yl)oxy)-N-(4-methylthiazol-2-yl)benzamide]",–
167,268,335,347,"CCc1nnc(-c2ccc(Oc3cc(OC4CCN(C)C4=O)cc(C(=O)Nc4nccs4)c3)cc2)o1 (stereo not shown) [Example 29, 3-(4-(5-Ethyl-1,3,4-oxadiazol-2-yl)phenoxy)-5-((1-methyl-2-oxopyrrolidin-3-yl)oxy)-N-(thiazol-2-yl)benzamide]",–
201,309,383,375,"Cc1csc(NC(=O)c2cc(Oc3ccc(-c4nnc(C5CC5)o4)cc3)cc(OC3CCN(C)C3=O)c2)n1 (stereo not shown) [Example 33, 3-(4-(5-Cyclopropyl-1,3,4-oxadiazol-2-yl)phenoxy)-5-((1-methyl-2-oxopyrrolidin-3-yl)oxy)-N-(4-methylthiazol-2-yl)benzamide]",–
182,350,396,337,"CN1CCC(Oc2cc(Oc3ccc(-c4nnc(-c5ccccc5)o4)cc3)cc(C(=O)Nc3nccs3)c2)C1=O (stereo not shown) [Example 34, 3((1-Methyl-2-oxopyrrolidin-3-yl)oxy)-5-(4-(5-phenyl-1,3,4-oxadiazol-2-yl)phenoxy)-N-(thiazol-2-yl)benzamide]",–
133,177,254,225,"Cc1nnc(-c2ccc(Oc3cc(OC4CCN(C5CCCCC5)C4=O)cc(C(=O)Nc4nccs4)c3)cc2)o1 (stereo not shown) [Example 36, 3((1-Cyclohexyl-2-oxopyrrolidin-3-yl)oxy)-5-(4-(5-methyl-1,3,4-oxadiazol-2-yl)phenoxy)-N-(thiazol-2-yl)benzamide]",–
150,205,252,256,"Cc1nnc(-c2ccc(Oc3cc(OC4CCN(C)C4=O)cc(C(=O)Nc4ncc(Br)s4)c3)cc2)o1 (stereo not shown) [Example 38, N-(5-Bromothiazol-2-yl)-3-(4-(5-methyl-1,3,4-oxadiazol-2-yl)phenoxy)-5-((1-methyl-2-oxopyrrolidin-3-yl)oxy)benzamide]",–
